Measurements published in patent publication US20150342954A1, “2-BENZYL, 3-(PYRIMIDIN-2-YL) SUBSTITUTED PYRAZOLES USEFUL AS SGC STIMULATORS” (IRONWOOD PHARMACEUTICALS, INC., priority 2011, published 2015).
Where two headings read alike, the source gives them in different places.

Columns and labels:
[1] = target: T1, Human soluble guanylate cyclase enzyme (hsGC) (Homo sapiens, UniProt Q02108+Q02153); assay: Purified human sGC enzyme synergy assay in the presence of 1 μM sodium nitroprusside (SNP); type: biochemical; conditions: compound at 30 μM, presence of 1 μM SNP
T1 construct: purchased Enzo Inc. ALX-201-177
T1 sequence (Q02153 1-619): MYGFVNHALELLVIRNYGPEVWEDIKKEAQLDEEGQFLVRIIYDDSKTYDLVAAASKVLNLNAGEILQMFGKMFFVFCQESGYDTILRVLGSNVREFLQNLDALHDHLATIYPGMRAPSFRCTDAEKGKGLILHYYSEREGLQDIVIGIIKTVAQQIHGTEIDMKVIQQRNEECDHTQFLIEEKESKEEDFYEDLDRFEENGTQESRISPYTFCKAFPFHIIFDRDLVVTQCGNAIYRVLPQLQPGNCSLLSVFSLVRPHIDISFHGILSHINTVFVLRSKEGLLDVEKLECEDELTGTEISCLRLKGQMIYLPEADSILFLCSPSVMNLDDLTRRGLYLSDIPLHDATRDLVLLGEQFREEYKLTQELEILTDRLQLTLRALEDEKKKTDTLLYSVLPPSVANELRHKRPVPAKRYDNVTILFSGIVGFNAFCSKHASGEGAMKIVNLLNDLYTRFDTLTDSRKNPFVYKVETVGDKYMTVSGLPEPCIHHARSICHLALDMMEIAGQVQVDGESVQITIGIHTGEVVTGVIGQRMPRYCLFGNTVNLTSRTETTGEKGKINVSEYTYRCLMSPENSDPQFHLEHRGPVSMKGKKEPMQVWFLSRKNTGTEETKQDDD
T1 sequence (Q02108 1-690): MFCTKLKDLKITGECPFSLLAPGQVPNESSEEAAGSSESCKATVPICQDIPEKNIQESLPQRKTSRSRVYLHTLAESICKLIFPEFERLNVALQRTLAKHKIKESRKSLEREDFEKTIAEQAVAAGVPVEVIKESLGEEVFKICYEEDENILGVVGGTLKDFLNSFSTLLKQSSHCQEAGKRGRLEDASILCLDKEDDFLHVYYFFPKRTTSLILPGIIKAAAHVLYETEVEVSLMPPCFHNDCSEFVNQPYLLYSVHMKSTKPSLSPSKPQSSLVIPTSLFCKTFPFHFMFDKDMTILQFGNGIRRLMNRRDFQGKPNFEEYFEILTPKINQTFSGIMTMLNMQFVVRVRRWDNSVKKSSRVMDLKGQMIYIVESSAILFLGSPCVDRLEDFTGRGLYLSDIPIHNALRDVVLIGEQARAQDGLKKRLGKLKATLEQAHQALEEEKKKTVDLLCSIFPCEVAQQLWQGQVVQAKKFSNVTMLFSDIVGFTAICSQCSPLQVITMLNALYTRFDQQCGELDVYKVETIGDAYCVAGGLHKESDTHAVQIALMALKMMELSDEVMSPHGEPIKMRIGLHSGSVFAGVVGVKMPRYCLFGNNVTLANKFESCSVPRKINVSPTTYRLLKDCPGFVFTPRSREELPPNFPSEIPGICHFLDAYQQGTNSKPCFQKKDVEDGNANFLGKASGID
Protocol: (§1) Human soluble guanylate cyclase enzyme (hsGC) obtained from Enzo Inc. (P/N: ALX-201-177) was used to evaluate the activity of test compounds. The assay reactions contained 0.1 M Tris (pH 8.0), 0.5 mg/mL BSA (pH 8.0), 2 mM DTT, 2 mM MgCl2, 300 μM GTP, 1 mM 3-isobutyl-1-methylxanthine (IBMX) and 5 ng human soluble guanylate cyclase enzyme. Test compounds in DMSO were then added (2 μL, 10 or 30 μM final concentration) and incubated (200 μL, 96-well plate format) at 37° C. for 30 minutes. The controls were carried out using 2 μL DMSO. After the 30 minute incubation, the reaction was stopped with the addition of 200 μl of cold methanol. The plate was then centrifuged at 3,200 rpm for 10 minutes at room temperature. Supernatants (200 μL) were collected and transferred to a new 96 well plate for analysis.
(§2) An 8 point cGMP (Sigma-Aldrich P/N: G6129) standard curve was prepared in assay buffer ranging from 0.156-20 μM. Samples for the cGMP standard curve were then diluted with an equal volume of methanol resulting in final cGMP concentrations of 0.078-10 μM.
(§3) The cGMP standard curve was generated using GraphPad Prism Software.
(§4) Calculations: Specific Activity was determined by the amount of cGMP formed (nmoles) per mg of sGC per min. Enzyme “fold-change” was calculated by dividing Specific Activity for test compounds by Specific Activity of DMSO controls.
Biological Measurement by the Purified Human sGC Enzyme Synergy Performed in the Presence of Sodium Nitroprusside (SNP), a Nitric Oxide Donor
Enzyme assays were performed as described above, but was done in the absence or presence of 1 μM sodium nitroprusside (SNP).

[2] = target: T1, Human soluble guanylate cyclase enzyme (hsGC); assay: Purified human sGC enzyme activity assay (without SNP); type: biochemical; conditions: compound at 30 μM, absence of SNP, fold over DMSO control
Protocol: Biological Activity Measurements by the Purified Human sGC Enzyme Activity Assay
as §1, §2, §3, §4

[3] = target: T2, soluble guanylate cyclase (sGC) (Homo sapiens, UniProt Q02108+Q02153); assay: sGC-HEK-cGMP assay (run with SNP incubation); type: cell-based; conditions: for Emax: 10 μM SNP, 100% = 30 μM BAY 41-2272 with 10 μM SNP, read-out: HEK assay Emax-unconstrained (Percent); for HEK MEC-10: concentration that would elicit 10% of the Emax in the presence of 10 μM SNP; for EC50: in the presence of 10 μM SNP
T2 construct: endogenously expressing soluble guanylate cyclase (sGC); endogenous in cells; host or cells: HEK293
T2 sequence (Q02153 1-619): T1 sequence (Q02153 1-619)
T2 sequence (Q02108 1-690): T1 sequence (Q02108 1-690)
Protocol: Biological Activity Measurement by the sGC-HEK-cGMP Assay
(Assay Run with SNP Incubation)
Human embryonic kidney cells (HEK293), endogenously expressing soluble guanylate cyclase (sGC), were used to evaluate the activity of test compounds. Compounds stimulating the sGC receptor should cause an increase in the intracellular concentration of cGMP. HEK 293 cells were seeded in Dulbecco's Modification of Eagle's Medium supplemented with fetal bovine serum (10% final) and L-glutamine (2 mM final) in a 2004 volume at a density of 1×10^5 cells/well in a poly-D-lysine coated 96 well flat bottom plate and grown overnight at 37° C. Medium was aspirated and cells were washed with 1× Hank's Buffered Saline Salt Solution (2004). Cells were then incubated for 15 minutes at 37° C. with 0.5 mM 3-isobutyl-1-methylxanthine (2004). Test article and sodium nitroprusside were then added to the assay mixture (24 each) and incubated at 37° C. for 10 minutes. After the 10 minute incubation, the assay mixture was aspirated and 0.1M HCl (2004) was added to the cells. The plate was incubated at 4° C. for 30 minutes in the 0.1M HCl to stop the reaction and lysed the cells. The plates were then centrifuged at 1,200 g for 5 minutes at room temperature. Supernatants were collected and transferred to a new flat bottom 96 well plate for analysis. Vehicle controls were carried out using DMSO (1%). A known sGC stimulator, BAY 41-2272, was used as the positive control. Samples were diluted with an equal volume of 1 M Ammonium Acetate (pH 7) to neutralize samples for better chromatography. A 2×cGMP standard curve was prepared in 0.1 M HCl and then diluted with an equal volume of 1 M Ammonium Acetate, with the following final concentrations in nM: 1024, 512, 256, 128, 64, 32, 16, 8, 4, 2, 1.cGMP concentrations were determined from each sample using the LC/MS conditions (Table 2 below) and calculated standard curve. EC50 values were calculated from concentration-response curves generated with GraphPad Prism Software.

[4] = Table 3C, top of concentration-response curve not fitted to 100%
[5] = Table 3F, read-out: HEK assay EC50
[6] = top of concentration-response curve not fitted to 100%, Table 3F, read-out: HEK assay EC50-unconstrained
[7] = Table 3B, top of concentration-response curve not fitted to 100%
[8] = Table 3E, read-out: HEK assay EC50
[9] = top of concentration-response curve not fitted to 100%, Table 3E, read-out: HEK assay EC50-unconstrained

Compound	Enzyme Activity (increase at 30 μM with SNP) ([1]; Table 5C)	Enzyme Activity (increase at 30 μM without SNP) ([2]; Table 5C)	Emax [3, 4] [%]	HEK MEC-10 ([3]; Table 3F)	EC50 [3, 5] [µM]	EC50 [3, 6] [µM]	Enzyme Activity (increase at 30 μM with SNP) ([1]; Table 5B)	Enzyme Activity (increase at 30 μM without SNP) ([2]; Table 5B)	Emax [3, 7] [%]	HEK MEC-10 ([3]; Table 3E)	EC50 [3, 8] [µM]	EC50 [3, 9] [µM]	also measured
CC(=O)Nc1cnc(-c2cc(-c3ccon3)n(Cc3cccc(F)c3F)n2)nc1N [Compound 80]	–	–	–	–	–	–	E (20 to 30 fold increase)	D (10 or <20 fold increase)	40 to 60	C (0.1 to <1 μM)	40 to 60	0.01 to 0.5	–
N#Cc1cc(-c2ncc(F)c(=O)[nH]2)nn1Cc1ccccc1F [Compound 74]	–	–	–	–	–	–	C (5 to <10 fold increase)	B (2 to <5 fold increase)	40 to 60	C (0.1 to <1 μM)	40 to 60	1 to 5	–
Nc1ccnc(-c2cc(-c3ccon3)n(Cc3cc(F)ccc3F)n2)n1 [Compound 73]	–	–	–	–	–	–	D (10 or <20 fold increase)	D (10 or <20 fold increase)	60 to 80	C (0.1 to <1 μM)	60 to 100	0.5 to 1	–
O=c1[nH]c(-c2cc(-c3ccon3)n(Cc3ccccc3F)n2)nc(CF)c1F [Compound 79]	–	–	–	–	–	–	D (10 or <20 fold increase)	B (2 to <5 fold increase)	40 to 60	D (1 to <10 μM)	40 to 60	5 to 10	–
CCCCCCCCCCC(=O)Nc1cnc(-c2cc(-c3ccon3)n(Cc3ccccc3F)n2)nc1N [Compound 58]	–	–	–	–	–	–	–	–	–	–	–	–	Enzyme Activity (increase at 30 μM with SNP) ([1]; Table 5A): B (2 to <5 fold increase); Enzyme Activity (increase at 30 μM without SNP) ([2]; Table 5A): A (no increase to <2 fold increase); HEK MEC-10 ([3]; Table 3D): E (10 to 50 μM); EC50 ([3]; Table 3D, read-out: HEK assay EC50): 600 to 900 µM
Nc1nc(-c2cc(-c3ccon3)n(Cc3ccccc3F)n2)ncc1NC(=O)C1(N)CC1 [Compound 69]	–	–	–	–	–	–	D (10 or <20 fold increase)	B (2 to <5 fold increase)	80 to 100	A (0.001 to <0.01 μM)	60 to 100	0.5 to 1	–
O=c1[nH]c(-c2cc(-c3ccon3)n(Cc3ccncc3F)n2)ncc1F [Compound 26]	–	–	–	–	–	–	–	–	–	–	–	–	Enzyme Activity (increase at 30 μM with SNP) ([1]; Table 5A): A (no increase to <2 fold increase); Enzyme Activity (increase at 30 μM without SNP) ([2]; Table 5A): A (no increase to <2 fold increase)
Fc1ncccc1Cn1nc(-c2ncccn2)cc1-c1ccon1 [Compound 66]	–	–	–	–	–	–	–	–	–	–	–	–	Enzyme Activity (increase at 30 μM with SNP) ([1]; Table 5A): A (no increase to <2 fold increase); Enzyme Activity (increase at 30 μM without SNP) ([2]; Table 5A): A (no increase to <2 fold increase)

Further lines, with some results ahead:

Enzyme Activity (increase at 30 μM with SNP) ([1]; Table 5C)	Enzyme Activity (increase at 30 μM without SNP) ([2]; Table 5C)	Emax [3, 4] [%]	HEK MEC-10 ([3]; Table 3F)	EC50 [3, 5] [µM]	EC50 [3, 6] [µM]	Enzyme Activity (increase at 30 μM with SNP) ([1]; Table 5B)	Enzyme Activity (increase at 30 μM without SNP) ([2]; Table 5B)	Emax [3, 7] [%]	HEK MEC-10 ([3]; Table 3E)	EC50 [3, 8] [µM]	EC50 [3, 9] [µM]	Compound	also measured
F (>30 fold increase)	D (10 or <20 fold increase)	60 to 80	C (0.1 to <1 μM)	< 20	0.5 to 1	–	–	–	–	–	–	CC1(C)C(=O)Nc2nc(-c3cc(-c4ccon4)n(Cc4ccccc4F)n3)ncc21 [Compound 100]	–
E (20 to 30 fold increase)	C (5 to <10 fold increase)	80 to 100	B (0.01 to <0.1 μM)	< 20	0.5 to 1	–	–	–	–	–	–	NC1=NNC2NC(c3cc(-c4ccon4)n(Cc4ccccc4F)n3)=NC=C12 (stereo not drawn) [Compound 118]	–
B (2 to <5 fold increase)	B (2 to <5 fold increase)	40 to 60	D (1 to <10 μM)	40 to 60	10 to 50	–	–	–	–	–	–	Cn1cnc2nc(-c3cc(-c4ccon4)n(Cc4ccccc4F)n3)ncc21 [Compound 109]	–
–	–	–	–	–	–	E (20 to 30 fold increase)	D (10 or <20 fold increase)	40 to 60	–	–	0.01 to 0.5	Oc1nc(-c2cc(-c3ccoc3)n(Cc3ccccc3F)n2)ncc1F [Compound 87]	–
E (20 to 30 fold increase)	D (10 or <20 fold increase)	60 to 80	A (0.001 to <0.01 μM)	< 20	0.01 to 0.5	–	–	–	–	–	–	CC(=O)Nc1n[nH]c2nc(-c3cc(-c4ccon4)n(Cc4ccccc4F)n3)ncc12 [Compound 114]	–
